The term Ki denotes the equilibrium dissociation constant of an inhibitor or competing ligand from its target.

The source of these data is patent US7157487B2, “Vla-4 inhibitors” (Daiichi Pharmaceutical Co., Ltd., priority 2000, dated 2007).

T1 sequence (P13612 34-1032): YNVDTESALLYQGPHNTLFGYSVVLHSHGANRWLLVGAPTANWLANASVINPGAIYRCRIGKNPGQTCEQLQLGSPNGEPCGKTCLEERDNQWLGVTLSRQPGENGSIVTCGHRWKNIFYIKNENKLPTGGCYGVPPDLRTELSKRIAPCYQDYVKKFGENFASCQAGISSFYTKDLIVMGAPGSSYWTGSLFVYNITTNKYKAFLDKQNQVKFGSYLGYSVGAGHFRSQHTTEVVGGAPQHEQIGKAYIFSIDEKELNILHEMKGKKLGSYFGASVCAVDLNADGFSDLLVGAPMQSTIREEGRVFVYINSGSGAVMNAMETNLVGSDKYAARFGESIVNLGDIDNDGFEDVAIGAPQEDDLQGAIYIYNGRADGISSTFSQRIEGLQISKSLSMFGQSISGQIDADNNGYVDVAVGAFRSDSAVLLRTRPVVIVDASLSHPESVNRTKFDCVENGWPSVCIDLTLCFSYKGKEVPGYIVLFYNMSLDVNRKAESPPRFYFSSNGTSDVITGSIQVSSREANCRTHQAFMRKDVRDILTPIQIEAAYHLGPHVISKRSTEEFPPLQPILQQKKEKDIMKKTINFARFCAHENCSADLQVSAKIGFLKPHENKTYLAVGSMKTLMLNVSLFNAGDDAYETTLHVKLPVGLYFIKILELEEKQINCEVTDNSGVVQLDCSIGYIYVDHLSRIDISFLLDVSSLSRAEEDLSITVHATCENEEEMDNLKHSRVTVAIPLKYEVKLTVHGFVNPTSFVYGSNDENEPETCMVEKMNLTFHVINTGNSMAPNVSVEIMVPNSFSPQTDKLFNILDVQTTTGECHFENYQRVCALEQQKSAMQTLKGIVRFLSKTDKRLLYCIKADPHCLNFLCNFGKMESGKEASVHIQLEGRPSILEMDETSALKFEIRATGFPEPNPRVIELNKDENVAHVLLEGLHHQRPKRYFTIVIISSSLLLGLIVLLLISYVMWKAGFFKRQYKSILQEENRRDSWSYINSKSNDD
T1 sequence (P05556 21-798): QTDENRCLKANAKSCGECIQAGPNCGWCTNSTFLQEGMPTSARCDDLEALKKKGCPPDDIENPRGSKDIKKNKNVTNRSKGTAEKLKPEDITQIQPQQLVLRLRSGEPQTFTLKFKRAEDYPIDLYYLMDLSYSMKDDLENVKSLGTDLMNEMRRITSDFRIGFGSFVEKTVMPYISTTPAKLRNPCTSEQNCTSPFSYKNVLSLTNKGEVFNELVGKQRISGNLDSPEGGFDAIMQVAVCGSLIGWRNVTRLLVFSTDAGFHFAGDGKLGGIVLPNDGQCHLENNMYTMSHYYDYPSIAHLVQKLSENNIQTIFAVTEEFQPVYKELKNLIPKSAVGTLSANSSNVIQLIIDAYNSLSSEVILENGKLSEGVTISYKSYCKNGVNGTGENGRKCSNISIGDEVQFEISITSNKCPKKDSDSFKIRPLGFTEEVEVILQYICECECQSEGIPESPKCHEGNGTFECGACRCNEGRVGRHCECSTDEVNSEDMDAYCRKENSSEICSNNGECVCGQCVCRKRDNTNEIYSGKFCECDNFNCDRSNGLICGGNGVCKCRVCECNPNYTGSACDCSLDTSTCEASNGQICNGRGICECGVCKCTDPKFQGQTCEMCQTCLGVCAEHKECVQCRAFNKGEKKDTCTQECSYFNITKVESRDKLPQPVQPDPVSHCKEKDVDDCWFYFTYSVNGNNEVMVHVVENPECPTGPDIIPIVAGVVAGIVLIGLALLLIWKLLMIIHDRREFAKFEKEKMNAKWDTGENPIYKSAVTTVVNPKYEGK

This experiment addresses T1, integrins haα4 and β1 (VLA-4) expressed on CHO cells (Homo sapiens, UniProt P05556+P13612).
T1 construct: expressed in transfected cells; host or cells: CHO cells
Put plainly: In vitro Evaluation Test (1): binding of Eu3+-hVCAM-1 D1D7-IgG to CHO cells expressing integrins α4 and β1. Conditions: inhibition of Eu3+-hVCAM-1 D1D7-IgG binding to CHO cells expressing α4β1; Ki calculated from IC50. The protocol:
CHO cells forcedly expressed by the transduction of integrins haα4 and β1 were seeded in a Coster 3599 plate (3×10^4 cells/100 μl/well) and they were cultured for 2 days. After the medium was washed with buffer A* twice, 50 μl/well of Eu^3+-hVCAM-1 D1D7-IgG diluted to […] with an assay buffer ** was added. To the resulting well was added 50 μl/well of a test compound diluted with 2% DMS0-assay buffer (in the presence or absence of 6% human serum albumin) (to a well subjected to Scatchard analysis was added a solution diluted in another manner). After stirring for 5 minutes on a plate mixer, the plate was allowed to stand at room temperature for 1 hour. Then, the plate was washed four times with the buffer A and added with 100 μl/well of an enhancement reagent (DELFIA). The plate was shaken for 5 minutes on a plate mixer, followed by measurement of fluorescence intensity by a time-resolved fluorometer (DELFIA Wallac). From the binding ratio available by the following calculation formula: ((FT−FNS)−(FI−FNS))/(FT−FNS)×100, the IC50 (concentration inhibiting 50% of binding of CHO cells with hVCAM-1 D1D7-IgG) of the test compound was determined. In the above formula, FT means the fluorescence intensity of the well free of the test compound, FNS means the fluorescence intensity of the well free of the test compound and anti-hα4 antibody (SG/73), and FI means the fluorescence intensity of the well containing the test compound. The Kd indicating the binding strength and Bmax (maximum binding) were estimated within a range of 0.06 to 20 nM in accordance with the Scatchard analysis method.
The value Ki was calculated based on:
[formula] ((L) means a ligand concentration). (* buffer A: 25 mM HEPES (pH 7.5), 150 mM NaCl, 1 mM Ca^2+, 1 MM Mg^2+, 4 mM Mn^2+; ** assay buffer: 25 mM HEPES (pH 7.5), 150 mM NaCl, 1 mM Ca^2+, 1 mM Mg^2+, 4 mM Mn^2+, 0.1% BSA, 20 μM DTPA, with/without 6% ALBUMIN, HUMAN SERUM (C/N A-1653, SIGMA)) In vitro Evaluation Test (2)
For `O=C(Nc1ccc(CC(=O)N2C[C@@H](F)C[C@H]2C(=O)N[C@H]2CC[C@H](C(=O)O)CC2)cc1Cl)c1nccc2ccccc12` [Example 112, trans-4-((1-(3-Chloro-4-((1-isoquinolinylcarbonyl)amino)phenylacetyl)-(4S)-fluoro-(2S)-pyrrolidinyl)carbonylamino)cyclohexanecarboxylic acid], the Ki was 6.5 nM.

Consider `Cn1cc(-c2nc3ccc(CC(=O)N4CCC[C@H]4CO[C@H]4CC[C@H](C(=O)O)CC4)cc3o2)c2ccc(F)cc21` [Example 131, trans-4-(1-((2-(6-Fluoro-1-methyl-3-indolyl)-6-benzoxazolyl)acetyl)-(2S)-pyrrolidinylmethoxy)-1-cyclohexanecarboxylic acid], for which the Ki was 17 nM.

With `Cc1cccc2oc(Nc3ccc(CC(=O)N4C[C@@H](F)C[C@H]4CO[C@H]4CC[C@H](C(=O)O)CC4)cc3Cl)nc12` [Example 52, trans-4-(1-(3-Chloro-4-(2-(4-methylbenzoxazolyl))aminophenylacetyl)-(4S)-fluoro-(2S)-pyrrolidinylmethoxy)cyclohexanecarboxylic acid], the Ki was 10 nM.

As for `Cc1ccc(F)cc1Nc1nc2ccc(CC(=O)N3CC[C@@H](O[C@H]4CC[C@H](C(=O)O)CC4)C3)c(F)c2o1` [Example 160, 4-(1-(2-(5-Fluoro-2-methylphenylamino)-7-fluoro-6-benzoxazolylacetyl)-(3R)-pyrrolidinyloxy)cyclohexanecarboxylic acid], the Ki is 61 nM.

`O=C(O)c1ccc(OC[C@@H]2C[C@H](F)CN2C(=O)Cc2ccc3nc(Nc4ccccc4)oc3c2)cc1` [Example 1]: the Ki was 30 nM.

As to `Cc1ccccc1Nc1nc2ccc(CC(=O)N3CC=C[C@H]3COc3ccc(C(=O)O)cc3)cc2o1` [Example 151, 4-(3,4-Dehydro-1-((2-(2-methylphenylamino)-6-benzoxazolyl)acetyl)-(2S)-pyrrolidinylmethoxy)benzoic acid], the Ki was 37 nM.

With `O=C(O)c1ccc(OC[C@@H]2C[C@H](F)CN2C(=O)Cc2ccc(NC(=O)c3c[nH]c4ccccc34)c(Cl)c2)cc1` [Example 15, 4-(1-(3-Chloro-4-(3-indolylcarbonylamino)phenylacetyl)-(4S)-fluoro-(2S)-pyrrolidinylmethoxy)benzoic acid], the Ki is 2.2 nM.

With `O=C(Nc1cc(F)c(CC(=O)N2C[C@@H](F)C[C@H]2CO[C@H]2CC[C@H](C(=O)O)CC2)cc1Cl)c1nccc2ccccc12` [Example 81, trans-4-(1-((5-Chloro-2-fluoro-4-((1-isoquinolinylcarbonyl)amino)phenyl)acetyl)-(4S)-fluoro-(2S)-pyrrolidinylmethoxy)cyclohexanecarboxylic acid], the Ki is 25 nM.

For `Cc1ccc(F)cc1Nc1nc2ccc(CC(=O)N3[C@H](CO[C@H]4CC[C@H](C(=O)O)CC4)CC[C@@H]3C)c(F)c2o1` [Example 137, trans-4-(1-((2-(5-Fluoro-2-methylphenylamino)-7-fluoro-6-benzoxazolyl)acetyl)-(5S)-methyl-(2S)-pyrrolidinylmethoxy)cyclohexanecarboxylic acid], the Ki was 5.6 nM.

Take `C[C@H]1C[C@@H](CO[C@H]2CC[C@H](C(=O)O)CC2)N(C(=O)Cc2cc(Cl)c(NC(=O)c3nn(C)c4ccccc34)cc2F)C1` [Example 135, trans-4-(1-(5-Chloro-2-fluoro-4-((1-methyl-1H-3-indazolylcarbonyl)amino)phenylacetyl)-(4S)-methyl-(2S)-pyrrolidinylmethoxy)cyclohexanecarboxylic acid]: the Ki was 19 nM.

With `Cc1ccccc1Nc1nc2ccc(CC(=O)N3C[C@@H](F)C[C@H]3C(=O)N3CCN(CC(=O)O)CC3)cc2o1` [Example 30, 4-((4S)-Fluoro-1-(2-(2-methylphenylamino)-6-benzoxazolylacetyl)-(2S)-pyrrolidinylcarbonyl)-1-piperazinylacetic acid], the Ki is 40 nM.

As to `CS[C@H]1C[C@@H](CO[C@H]2CC[C@H](C(=O)O)CC2)N(C(=O)Cc2cc(Cl)c(NC(=O)c3nn(C)c4ccccc34)cc2F)C1` [Example 127, trans-4-(1-((5-Chloro2-fluoro-4-((1-methyl-3-indazolylcarbonyl)amino)phenyl)acetyl)-(4S)-methylthio-(2S)-pyrrolidinylmethoxy)cyclohexanecarboxylic acid], the Ki was 9.7 nM.

In the case of `Cc1ccccc1Nc1nc2ccc(CC(=O)N3CCC[C@H]3COC3CCC(C(=O)O)CC3)cc2o1` (single isomer, unassigned) [22 (Isomer B)], the Ki was 3.5 nM.

As to `COc1cc(CC(=O)N2C[C@@H](F)C[C@H]2CO[C@H]2CC[C@H](C(=O)O)CC2)c(F)cc1NC(=O)c1cn(C)c2ccccc12` [Example 76, trans-4-((4S)-Fluoro-1-(2-fluoro-5-methoxy-4-((1-methyl-1H-3-indolylcarbonyl)amino)phenylacetyl)-(2S)-pyrrolidinylmethoxy)cyclohexanecarboxylic acid], the Ki is 1.6 nM.

For the compound `Cn1nc(C(=O)Nc2cc(F)c(CC(=O)N3C[C@@H](S(C)(=O)=O)C[C@H]3CO[C@H]3CC[C@H](C(=O)O)CC3)cc2Cl)c2ccccc21` [Example 129, trans-4-(1-((5-Chloro-2-fluoro-4-((1-methyl-3-indazolylcarbonyl)amino)phenyl)acetyl)-(4S)-methanesulfonyl-(2S)-pyrrolidinylmethoxy)cyclohexanecarboxylic acid], the Ki is 1.5 nM.

Turning to `COC[C@@H]1C[C@@H](Oc2ccc(C(=O)O)cc2)CN1C(=O)Cc1ccc2nc(Nc3cc(F)ccc3C)oc2c1F` [Example 159, 4-(1-((2-(5-Fluoro-2-methylphenylamino)-7-fluoro-6-benzoxazolyl)acetyl)-(2S)-methoxymethyl-(4R)-pyrrolidinyloxy)benzoic acid], the Ki is 47 nM.

As for `O=C(Cc1ccc2nc(-c3cccc4ccccc34)oc2c1)N1C[C@@H](F)C[C@H]1CO[C@H]1CC[C@H](C(=O)O)CC1` [Example 95, trans-4-(1-(2-(1-Naphthyl)-6-benzoxazolylacetyl)-(4S)-fluoro-(2S)-pyrrolidinylmethoxy)cyclohexanecarboxylic acid], the Ki is 34 nM.

For `O=C(Nc1ccc(CC(=O)N2C[C@@H](F)C[C@H]2CO[C@H]2CC[C@H](C(=O)O)CC2)cc1Br)c1c[nH]c2ccccc12` [Example 64, trans-4-(1-((3-Bromo-4-((3-indolylcarbonyl)amino)phenyl)acetyl)-(4S)-fluoro-(2S)-pyrrolidinylmethoxy)cyclohexanecarboxylic acid], the Ki is 0.31 nM.

Consider `C[C@H]1C[C@@H](CO[C@H]2CC[C@H](C(=O)O)CC2)N(C(=O)Cc2cc(Cl)c(NC(=O)c3cn(C)c4ccccc34)cc2F)C1` [Example 133, trans-4-(1-(5-Chloro-2-fluoro-4-((1-methyl-1H-3-indolylcarbonyl)amino)phenylacetyl)-(4S)-methyl-(2S)-pyrrolidinylmethoxy)cyclohexanecarboxylic acid], for which the inhibition constant Ki was 22 nM.

For `CN(C)C(=O)CO[C@H]1C[C@@H](CO[C@H]2CC[C@H](C(=O)O)CC2)N(C(=O)Cc2cc(Cl)c(NC(=O)c3cn(C)c4ccccc34)cc2F)C1` [Example 120, trans-4-(1-((5-Chloro-2-fluoro-4-(1-methyl-3-indolylcarbonylamino)phenyl)acetyl)-(4S)-dimethylcarbamoylmethoxy-(2S)-pyrrolidinylmethoxy)-1-cyclohexanecarboxylic acid], the Ki was 1.9 nM.

In the case of `O=C(Cc1ccc2nc(N3CCc4ccccc43)oc2c1)N1C[C@@H](F)C[C@H]1CO[C@H]1CC[C@H](C(=O)O)CC1` [Example 104], the Ki is 20 nM.

With `Cn1cc(C(=O)Nc2cc(F)c(CC(=O)N3C[C@@H](F)C[C@H]3CCN3CCC(C(=O)O)CC3)cc2Cl)c2ccccc21` [Example 109, 1-(2-(1-((5-Chloro-2-fluoro-4-((1-methyl-3-indolylcarbonyl)amino)phenyl)acetyl)-(4S)-fluoro-(2R)-pyrrolidinyl)ethyl)-4-piperidinecarboxylic acid], the inhibitory constant (Ki) is 25 nM.

With `Cn1cc(-c2nc3ccc(CC(=O)N4C[C@@H](F)C[C@H]4CN[C@H]4CC[C@H](C(=O)O)CC4)c(F)c3o2)c2ccccc21` [Example 108, trans-4-(N-(1-((7-Fluoro-2-(1-methyl-3-indolyl)-6-benzoxazolyl)acetyl)-(4S)-fluoro-(2S)-pyrrolidinylmethyl)amino)cyclohexanecarboxylic acid], the Ki is 21 nM.

As for `Cc1ccccc1Nc1nc2ccc(CC(=O)N3C[C@@H](F)C[C@H]3COc3ccc(C(=O)O)cc3)c(F)c2o1` [Example 6, 4-((2S,4S)-1-(7-Fluoro-2-(2-methylphenylamino)-6-benzoxazolylacetyl)-4-fluoro-2-pyrrolidinylmethoxy)benzoic acid], the Ki is 14 nM.
